How the values were obtained:
KB cells = conditions: by inhibition of DNA polymerase; cited from earlier work
LLC cells = assay: Antitumor activity on BDF1 mice transplanted with LLC cells; type: in vivo, mouse; conditions: for Inhibition rate of tumor growth (%): i.p., WT 280, SPX1 70, SPX2 171, SPX3 30.5, SPX4 8.1, SB365 6.4, adriamycin 0.5 mg/kg
Method: The mouse species used in this experiment was BDF1, and healthy male mice with the body weight of […] were used. These animals were supplied with water and foods ad libitum at a place of controlled temperature in the range of 2324° C., and were bred with an antibiotic-free mouse feed. LLC cells were subcutaneously cultured in C57BL/6 mice for 14 days. A LLC cell-containing tissue was taken and thereto was added sterilized cold physiological saline water (5 ml/g tissue) to prepare a cell suspension. The cell suspension of 0.2 ml was subcutaneously transplanted to the groin region of BDF1 mouse.
From 24 hours after transplantation, the above mice were divided into several groupsconsisting of 5 mice. Then, samples, fractions WT and SPX fractions, and SB365, were dissolved in physiological saline, and were injected intraperitoneally at each concentration of 280 mg/kg (WT), 70 mg/kg SPX1), 171 mg/kg (SPX2), 30.5 mg/kg (SPX3), 8.1 mg/kg (SPX4), and 6.4 mg/kg (SB365). To the negative control group was injected only the physiological saline, and to the positive control group was injected adriamycin (0.5 mg/kg). The injection was scheduled from 24 hours after tumor transplantation to administer the samples successively once a day for 7 days, and stopped for one day, and then, was carried out for 6 more consecutive days.
In order to evaluate toxicity of SB365 on mice, experimental mice were weighed twice a week. Antitumor activity was calculated after measuring tumor volume of the control and test groups on 14th and 15th day after sample administration as follows: • Tumor volume (mm^3)=length (mm)×width^2 (mm^2)/2 • Inhibition rate of tumor growth (%)=(C−T)×100/C • (C: average tumor volume in the control group, T: average tumor volume in the test group)

NCI-H23 cells = assay: Antitumor activity on nude mice transplanted with NCI-H23 cells; type: in vivo, mouse; conditions: for Inhibition rate of tumor growth (%) on NCI-H23: 16th day after tumor cells transplantation
Method: Female nude mice of the age of 5 weeks weighing 16˜25 g obtained from Harlan Co. (USA) were used as experimental animals in this experiment. The mice were used after acclimation for 1 week in an aseptic animal room. The animal room maintained the temperature of 22±2° C., the humidity of 55±5%, and the light and darkness cycle of 12 hours, which was automatically controlled. Solid feed for experimental animals was radiosterilized, and drinking water was sterilized in an autoclave. The animals were supplied with feed and drinking water ad libitum. A human tumor cell line provided by National Cancer Institute (NCI), USA, and preserved in the Korean Research Institute of Bioscience and Biotechnology (KRIBB), Korea, was used. Lung tumor cells, NCI-H23 cells, among the human tumor cells, were transplanted to the nude mice. The tumor cells of 3×10^7 cells/ml were subcutaneously transplanted to the mice at a volume of 0.3 ml/20 g body weight. The samples were intraperitoneally injected to the mice every day for 13 days, that is, from 1 day to 14th day except 8th day after tumor cells transplantation. The size of tumor formed during the injection was measured in each animal, and any change in its body weight was also measured. On 16th day after tumor cells transplantation, the nude mice were sacrificed, and the tumor was separated and weighed. To the positive control group was intraperitoneally injected adiamycin of 0.5 mg/kg body weight on 1st, 5th, 9th, and 14th day.

[1] = 14th day after transplantation of tumor cells
[2] = 15th day after transplantation of tumor cells

Compound | Cytotoxicity (in words) (KB cells) | Inhibition rate of tumor growth (%) (LLC cells; [1]) | Inhibition rate of tumor growth (%) (LLC cells; [2]) | Inhibition rate of tumor growth (%) on NCI-H23 (NCI-H23 cells; 0.5 mg/kg i.p. on 1st, 5th, 9th, 14th day) | Antitumor activity (in words) (LLC cells; BDF1 mice transplanted with LLC cells) | Inhibition rate of tumor growth (LLC cells; day not stated) | Inhibition rate of tumor growth (%) on NCI-H23 (NCI-H23 cells; 1.6 mg/kg i.p.) | Inhibition rate of tumor growth (%) on NCI-H23 (NCI-H23 cells; 3.2 mg/kg i.p.) | Inhibition rate of tumor growth (%) on NCI-H23 (NCI-H23 cells; 6.4 mg/kg i.p.) | Antitumor activity (in words) (NCI-H23 cells; nude mice transplanted with NCI-H23 cells)
O=C1C=C[C@@H](COC2OC(CO)C(O)C(O)C2O)O1 (stereo partly drawn) [ranunculin, Ranunculin] | has cytotoxicity | – | – | – | – | – | – | – | – | –
COc1cccc2c1C(=O)c1c(O)c3c(c(O)c1C2=O)C[C@@](O)(C(=O)CO)C[C@@H]3O[C@H]1C[C@H](N)[C@H](O)[C@H](C)O1 [Adriamycin, reference compound] | – | 60% | 64% | 61.5% | – | – | – | – | – | –
CC1OC(OC2C(O[C@H]3CC[C@@]4(C)C(CC[C@]5(C)C4CC=C4C6CC(C)(C)CC[C@]6(C(=O)O)CC[C@]45C)[C@]3(C)CO)OCC(OC3OC(CO)C(O)C(O)C3O)C2O)C(O)C(O)C1O (stereo partly drawn) [SB365, hederagenin 3-O-α-L-rhamnopyranosyl(1→2)-[β-D-glucopyranosyl(1→4)]-α-L-arabinopyranoside] | – | 82% | 79% | – | higher antitumor activity | 81% | 40.1% | 52.3% | 82.1% | higher antitumor activity

— patent US20050239718A1, “Use of hederagenin 3-O-alpha-L-rhamnopyranosyl((1-2)-[betha-D-glucopyranosyl(1-4)]-alpha-L-arabinopyranoside or an extract from pulsatillae radix containing the same as a therapeutic agent for solid tumors” (priority 2002, published 2005)
